Laboratory results: publication PMC5654968 (NPJ Systems Biology and Applications, 2017)
Where two headings read alike, the source gives them in different places.

Experiments:
[1] = Plasma PK of major maoto compounds by LC-MS/MS after oral administration of maoto; format: in vivo, rat
Description: 1 (7:00-19:00). Rats were maintained and used for the experiments in accordance
2 with the Guidelines for the Care and Use of Laboratory Animals of Tsumura &
3 CO. All experimental procedures were carried out upon approval from the
4 Laboratory Animal Committee of Tsumura & CO.
8 administered to 16-h fasted rats (n=3). […]
14 and 4 g/10mL/kg) were determined by LC-MS/MS. Based on a literature search,
16 amygdalin, prunasin, scopoletin, l-ephedrine, d-pseudoephedrine,
1 Plasma PK data were analyzed by noncompartmental modeling using
2 Phoenix WinNonlin (version 6.3, Certara L.P., St. Louis, MO, USA) to determine
3 various PK constants including Cmax, tmax, t1/2, and AUC0–last. The t1/2 was divided
4 by loge2/ke, where ke is the rate constant of terminal elimination (at least three
5 data points on the descending linear limb). […]

[2] = format: in vivo, rat
Description: Distilled water and saline were administered as vehicle to rats in each control group. […] Plasma cytokine levels were measured by ELISA or multiplex immunoassay; common metabolites and lipid mediators were analyzed by GC-MS/MS and LC-MS/MS, respectively.
Pathway maps of lipid mediators were created by using CellDesigner 4.4 software (http://www.celldesigner.org). We evaluated the effects of the treatments on specific lipid mediators and categorized them according to COX, CYP and LOX pathways by Fisher’s exact test. The proinflammatory and anti-inflammatory indices were analyzed as described by Tam et al. with modification.[22]

[3] = Sprague-Dawley, rat, plasma, po, 1 g/kg
[4] = Sprague-Dawley, rat, plasma, po, 1 g/kg, read-out: Cmax
[5] = Sprague-Dawley, rat, plasma, po, 1 g/kg, read-out: Tmax
[6] = Sprague-Dawley, rat, plasma, po, 2 g/kg
[7] = Sprague-Dawley, rat, plasma, po, 2 g/kg, read-out: Cmax
[8] = Sprague-Dawley, rat, plasma, po, 2 g/kg, read-out: Tmax
[9] = Sprague-Dawley, rat, plasma, po, 4 g/kg
[10] = Sprague-Dawley, rat, plasma, po, 4 g/kg, read-out: Cmax
[11] = Sprague-Dawley, rat, plasma, po, 4 g/kg, read-out: Tmax
[12] = PM/P (polyI:C+maoto vs polyI:C), 2h
[13] = PM/P (polyI:C+maoto vs polyI:C), 4h

| SMILES | AUC(0-t) [1, 3] | Cmax [1, 4] | Tmax [1, 5] | AUC(0-t) [1, 6] | Cmax [1, 7] | Tmax [1, 8] | AUC(0-t) [1, 9] | Cmax [1, 10] | Tmax [1, 11] | log2FC of plasma level ([2]; M/C (maoto vs control), 2h) | log2FC of plasma level ([2]; M/C (maoto vs control), 4h) | log2FC of plasma level ([2]; P/C (polyI:C vs control), 2h) | log2FC of plasma level ([2]; P/C (polyI:C vs control), 4h) | log2FC of plasma level [2, 12] | log2FC of plasma level [2, 13] | also measured |
| --- | --- | --- | --- | --- | --- | --- | --- | --- | --- | --- | --- | --- | --- | --- | --- | --- |
| COc1c(CC=C(C)C)c(O)cc2oc(=O)c(-c3ccc(O)cc3O)cc12 [Glycycoumarin] | 0.0105 ng·h/mL | 0.0836 ng/mL | 0.25 h | 0.0227 ng·h/mL | 0.0906 ng/mL | 1 h | 0.058 ng·h/mL | 0.0753 ng/mL | 0.25 h | – | – | – | – | – | – | – |
| CC1(C)[C@@H](O)CC[C@]2(C)[C@H]3C(=O)C=C4[C@@H]5C[C@@](C)(C(=O)O)CC[C@]5(C)CC[C@@]4(C)[C@]3(C)CC[C@@H]12 [Glycyrrhetinic acid] | 2240 ng·h/mL | 234 ng/mL | 8 h | 4510 ng·h/mL | 373 ng/mL | – | 3950 ng·h/mL | 301 ng/mL | 8 h | – | – | – | – | – | – | Tmax ([1]; rat plasma, oral maoto 2 g/kg): 10 h |
| O=C(/C=C/c1ccc(O)cc1)c1ccc(O)cc1O [Isoliquiritigenin] | 19.8 ng·h/mL | 10.4 ng/mL | 0.25 h | 31 ng·h/mL | 10.1 ng/mL | 0.25 h | 58.9 ng·h/mL | 7.59 ng/mL | 0.25 h | – | – | – | – | – | – | half-life [1, 6]: 11.1 h; half-life [1, 9]: 3.61 h; t1/2 ([1]; rat plasma, oral maoto 1 g/kg): 3.42 h |
| O=C(/C=C/c1ccc(O[C@@H]2O[C@H](CO)[C@@H](O)[C@H](O)[C@H]2O)cc1)c1ccc(O)cc1O [Isoliquiritin] | 2.09 ng·h/mL | 1.6 ng/mL | 0.25 h | 6.03 ng·h/mL | 3.6 ng/mL | 1 h | 12.6 ng·h/mL | 8.71 ng/mL | 0.25 h | – | – | – | – | – | – | half-life [1, 3]: 2.3 h; half-life [1, 9]: 3.14 h |
| CCCCC/C=C\C\C=C/C=C/C=C/[C@@H](SC[C@H](N)C(=O)O)[C@@H](O)CCCC(=O)O [LTE4] | – | – | – | – | – | – | – | – | – | -0.95 | -1.00 | 1.04 | 0.58 | -0.91 | -0.51 | – |
| O=C1C[C@@H](c2ccc(O)cc2)Oc2cc(O)ccc21 [Liquiritigenin] | – | – | – | – | – | – | – | – | – | – | – | – | – | – | – | AUClast ([1]; rat plasma, oral maoto 1 g/kg): 17.4 ng·h/mL; Cmax ([1]; rat plasma, oral maoto 1 g/kg): 18.0 ng/mL; Tmax ([1]; rat plasma, oral maoto 1 g/kg): 0.250 h; AUClast ([1]; rat plasma, oral maoto 2 g/kg): 35.0 ng·h/mL; Cmax ([1]; rat plasma, oral maoto 2 g/kg): 15.1 ng/mL; Tmax ([1]; rat plasma, oral maoto 2 g/kg): 1.00 h; AUClast ([1]; rat plasma, oral maoto 4 g/kg): 84.4 ng·h/mL; Cmax ([1]; rat plasma, oral maoto 4 g/kg): 16.1 ng/mL; Tmax ([1]; rat plasma, oral maoto 4 g/kg): 0.250 h |
| O=C1C[C@@H](c2ccc(O[C@@H]3O[C@H](CO)[C@@H](O)[C@H](O)[C@H]3O)cc2)Oc2cc(O)ccc21 [Liquiritin] | 8.9 ng·h/mL | 3.04 ng/mL | 0.25 h | 22.4 ng·h/mL | 7.23 ng/mL | 1 h | 61.4 ng·h/mL | 71.7 ng/mL | 0.25 h | – | – | – | – | – | – | half-life [1, 3]: 1.95 h; half-life [1, 6]: 2.23 h; half-life [1, 9]: 4.34 h |
| CCCCC/C=C\C\C=C/C=C/C=C/[C@@H](SCC(NC(C)=O)C(=O)O)[C@@H](O)CCCC(=O)O (stereo partly shown) [N-acetyl-LTE4] | – | – | – | – | – | – | – | – | – | -1.85 | -1.41 | 2.21 | 1.28 | -2.45 | -0.96 | – |
| CCCCC[C@H](O)/C=C/[C@H]1C(=O)C[C@H](O)[C@@H]1C/C=C\CCCC(=O)O [PGD2] | – | – | – | – | – | – | – | – | – | -0.26 | -0.58 | 0.28 | 0.92 | -0.11 | -1.25 | – |
| CC/C=C\C[C@H](O)/C=C/[C@H]1C(=O)C[C@H](O)[C@@H]1C/C=C\CCCC(=O)O [PGD3] | – | – | – | – | – | – | – | – | – | – | – | – | – | – | – | log2FC of plasma level [2]: -0.55; log2FC of plasma level ([2]; first value of an incomplete line, time (2h or 4h) not assignable): -0.03 |
| CCCCC[C@H](O)/C=C/[C@H]1[C@H](O)CC(=O)[C@@H]1C/C=C\CCCC(=O)O [PGE2] | – | – | – | – | – | – | – | – | – | -0.31 | 0.22 | 0.59 | 0.59 | -0.15 | 0.22 | – |
| CCCCC[C@H](O)/C=C/[C@@H]1[C@@H](C/C=C\CCCC(=O)O)[C@@H](O)C[C@H]1O [PGF2α] | – | – | – | – | – | – | – | – | – | 0.30 | -0.20 | 0.24 | -0.04 | 0.14 | -0.13 | – |
| CCCCC[C@H](O)/C=C/[C@H]1OC(O)C[C@H](O)[C@@H]1C/C=C\CCCC(=O)O (stereo partly shown) [TXB2] | – | – | – | – | – | – | – | – | – | 1.36 | -0.87 | 0.70 | 0.28 | 0.92 | -0.46 | – |
